Calls of active or inactive are those of the source. The calls are words filed in the database; no cut-off is given here.
Legend:
[1] = AUC (0 to t) in ICR mouse plasma at 1 mg/kg, iv measured up to 24 hrs by LC-MS/MS analysis; assay type: ADME, organism-based; parameters: dose 1 mg/kg, time < 24 hrs, route iv
MKN-45 = test: Induction of apoptosis in human MKN-45 cells assessed as necrotic cells 10 nM incubated for 48 hrs by FITC-annexin V/propidium iodide staining based flow cytometry (reference value: 10.3%); assay type: functional
[2] = molecular target: T1, Signal transducer and activator of transcription 3 (Homo sapiens, UniProt P40763); test: Inhibition of STAT3 in human AGS cells assessed as downregulation of c-myc expression at 10 to 40 nM incubated for 24 hrs by RT-PCR analysis; assay type: cell-based; settings: dose 10-40 nM
[3] = Elimination half life in ICR mouse plasma at 1 mg/kg, iv measured up to 24 hrs by LC-MS/MS analysis; assay type: ADME, organism-based; settings: read-out: beta t1/2 (converted)
[4] = molecular target: T1, Signal transducer and activator of transcription 3; test: Inhibition of STAT3 phosphorylation at Ser727 residue in human AGS cells incubated upto 24 hrs by Western blotting analysis; assay type: cell-based; settings: dose <= 40.0 nM, DDE = dose-dependent effect
AGS = test: Inhibition of colony formation in STAT3 knockdown human AGS cells assessed as reduction in number of colonies incubated for 5 to 7 days by crystal violet staining based assay; assay type: functional, cell-based; settings: time 5-7 day

T1 sequence (P40763 whole entry): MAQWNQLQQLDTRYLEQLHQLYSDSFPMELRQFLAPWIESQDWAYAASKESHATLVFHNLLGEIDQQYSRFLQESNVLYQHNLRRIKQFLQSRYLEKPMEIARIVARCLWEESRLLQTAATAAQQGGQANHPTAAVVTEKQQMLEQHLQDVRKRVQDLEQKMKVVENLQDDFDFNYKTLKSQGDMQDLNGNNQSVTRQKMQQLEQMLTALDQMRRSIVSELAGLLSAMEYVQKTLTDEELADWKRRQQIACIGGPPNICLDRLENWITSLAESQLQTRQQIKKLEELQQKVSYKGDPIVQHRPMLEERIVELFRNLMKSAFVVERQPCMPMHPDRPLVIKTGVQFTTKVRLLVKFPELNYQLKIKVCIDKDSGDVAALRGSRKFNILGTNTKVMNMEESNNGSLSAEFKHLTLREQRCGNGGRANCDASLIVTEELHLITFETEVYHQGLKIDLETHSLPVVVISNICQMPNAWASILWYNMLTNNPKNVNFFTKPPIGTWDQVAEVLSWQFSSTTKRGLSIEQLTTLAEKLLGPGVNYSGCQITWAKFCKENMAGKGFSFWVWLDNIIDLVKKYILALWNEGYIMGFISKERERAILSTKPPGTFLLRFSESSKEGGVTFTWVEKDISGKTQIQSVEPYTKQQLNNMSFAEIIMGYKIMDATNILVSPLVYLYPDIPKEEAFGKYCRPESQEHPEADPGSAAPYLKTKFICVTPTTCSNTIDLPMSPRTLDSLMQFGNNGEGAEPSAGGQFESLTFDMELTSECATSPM

O=C(c1ccc(-c2noc(-c3ccc(C(F)(F)F)cc3)n2)cc1)N1CCN(Cc2ccc(OCC(F)(F)F)cc2)CC1
AUC(0-t) at 24 h [1]: 1730 ng·h/mL | Activity (MKN-45): 9.14% | inhibition [2]: Active | half-life [3]: 9.06 h | inhibition [4]: Dde | inhibition (AGS): Active
